Results on 18 molecules are retold here after PubChem BioAssay (NCI).

Among the test systems are CAKI-1 renal; HT29 colon; MDA-N; OVCAR-3 ovarian; OVCAR-4 ovarian; PC-3 prostate; SF-539 CNS; SK-MEL-2 melanoma; SK-OV-3 ovarian; TK-10 renal.
What all share (assay): NCI anticancer screen, dose series, 48 h

Several values for one entry are separate records, joined by “and”; a condition that tells them apart may be missing. Equal values may be shown once.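 A five-concentration, 48-hour dose response in 96-well plates underlies each endpoint, interpolated linearly between surrounding concentrations. GI50 marks 50% less growth. The concentration for full growth arrest is given as TGI.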

Regarding `Cc1cc(O)c2c(c1O)C(=O)c1cccc(O)c1C2=O`, the TGI with CAKI-1 renal, with HT29 colon, in the assay with MDA-N, in the assay with OVCAR-3 ovarian, in the assay on OVCAR-4 ovarian and with PC-3 prostate was above 100 µM each time. Further, the TGI in the assay with SF-539 CNS, with SK-MEL-2 melanoma, with SK-OV-3 ovarian and with TK-10 renal was above 100 µM each time.

In the case of `O=[N+]([O-])c1ccc2nc(Cl)n[n+]([O-])c2c1`, the TGI was determined as 30.1 µM with CAKI-1 renal; 49.1 µM in the assay on HT29 colon; 24.9 µM in the assay on MDA-N; 21.9 µM in the assay with OVCAR-3 ovarian; 26.8 µM in the assay with OVCAR-4 ovarian; 28.4 µM in the assay with PC-3 prostate. Also, the TGI is 25.3 µM in the assay with SF-539 CNS, 29.2 µM with SK-MEL-2 melanoma, 31.4 µM with SK-OV-3 ovarian and 30.8 µM in the assay on TK-10 renal.

In the case of `CC(=O)N1N=C(c2ccc3ccccc3c2O)CC1c1cccs1` (stereo not drawn), the TGI in the assay on CAKI-1 renal, with HT29 colon, in the assay on MDA-N, in the assay with OVCAR-3 ovarian, with OVCAR-4 ovarian and in the assay on PC-3 prostate was above 100 µM throughout. Besides, the TGI was 89.2 µM in the assay with SF-539 CNS, 74.3 µM in the assay with SK-MEL-2 melanoma, above 100 µM in the assay on SK-OV-3 ovarian and above 100 µM in the assay with TK-10 renal.

`C(/C=C/c1ccccc1)=Nc1ccc2c(c1)Cc1ccccc1-2`: the TGI in the assay with CAKI-1 renal, in the assay on HT29 colon, in the assay with MDA-N, with OVCAR-3 ovarian, in the assay on OVCAR-4 ovarian and in the assay on PC-3 prostate was above 100 µM throughout. Moreover, the TGI in the assay on SK-MEL-2 melanoma and with TK-10 renal was above 100 µM throughout.

On to `C=C(C)C(=O)O[C@H]1CC2=C[C@@H](C[C@@]3(C)O[C@@H]3[C@H]3OC(=O)C(=C)[C@@H]31)OC2=O`, for which the GI50 in the assay with CAKI-1 renal is 2.63 µM. For the same molecule, the TGI in the assay on CAKI-1 renal stood at 6.25 µM; with HT29 colon, 5.93 µM; in the assay on OVCAR-3 ovarian, 3.74 µM; in the assay on OVCAR-4 ovarian, 6.48 µM; with SF-539 CNS, 8.21 µM; in the assay on SK-MEL-2 melanoma, 8.81 µM. The molecule further yielded a TGI in the assay with SK-OV-3 ovarian of 34.9 µM.

Regarding `CCOC1=NC(C(F)(F)F)(C(F)(F)F)N=C(N2CCOCC2)O1`, the TGI in the assay on CAKI-1 renal, with HT29 colon, in the assay with MDA-N, with OVCAR-3 ovarian, with OVCAR-4 ovarian and in the assay with PC-3 prostate was above 100 µM in each case. Besides, the TGI with SF-539 CNS, in the assay on SK-MEL-2 melanoma, in the assay on SK-OV-3 ovarian and with TK-10 renal was above 100 µM throughout.

`COc1cc(C2S/C(=C/c3ccccc3)C(=O)N2c2ccc(NC(C)=O)cc2)cc(OC)c1OC` (stereo not drawn): the TGI is 72.4 µM in the assay with CAKI-1 renal; 32 µM in the assay with HT29 colon; 63.4 µM in the assay on MDA-N; above 100 µM in the assay on OVCAR-4 ovarian; 48.1 µM with PC-3 prostate; 20.3 µM with SK-MEL-2 melanoma. Also, the TGI with SK-OV-3 ovarian and in the assay with TK-10 renal was above 100 µM throughout.

Regarding `COc1ccc(-c2csc(=Nc3ccccc3)n2CCCN(C)C)cc1`, the TGI is above 100 µM with CAKI-1 renal; above 100 µM with MDA-N; 37.5 µM in the assay with OVCAR-3 ovarian; 65.6 µM in the assay with OVCAR-4 ovarian; 30.2 µM with PC-3 prostate; 32 µM in the assay with SF-539 CNS. In addition, the TGI turned out to be 37.7 µM with SK-MEL-2 melanoma, 39.4 µM in the assay with SK-OV-3 ovarian and 29.8 µM in the assay with TK-10 renal.

For the molecule `NC(CSCc1ccc(I)cc1)C(=O)O` (stereo not drawn), the TGI with CAKI-1 renal, in the assay with HT29 colon, in the assay on MDA-N, with OVCAR-3 ovarian, in the assay with OVCAR-4 ovarian and in the assay with PC-3 prostate was above 100 µM throughout. Moreover, the TGI in the assay with SK-MEL-2 melanoma, in the assay on SK-OV-3 ovarian and in the assay with TK-10 renal was above 100 µM each time.

`c1ccc(N2N=C(c3cccc(Nc4ccncc4)c3)CC2c2ccc3c(c2)OCO3)cc1` (stereo not drawn): the GI50 is 1.3 µM in the assay with CAKI-1 renal; 1.48 µM in the assay on OVCAR-3 ovarian; 1.53 µM in the assay on OVCAR-4 ovarian; 1.7 µM with SF-539 CNS; 2.02 µM with SK-MEL-2 melanoma; 2.73 µM with SK-OV-3 ovarian. For the same molecule, the GI50 in the assay on TK-10 renal was 1.94 µM. Moreover, the TGI was 2.69 µM in the assay on CAKI-1 renal; 2.92 µM in the assay with OVCAR-3 ovarian; 3.89 µM with OVCAR-4 ovarian; 3.18 µM with SF-539 CNS; 4.01 µM in the assay on SK-MEL-2 melanoma; 10.2 µM with SK-OV-3 ovarian. Moreover, the TGI with TK-10 renal came out at 3.99 µM.

For `Cc1nc2c(c(=O)[nH]1)S/C(=C(/C#N)c1nc3ccccc3[nH]1)N2c1ccccc1`, the TGI with CAKI-1 renal, in the assay on HT29 colon, in the assay with OVCAR-3 ovarian, with OVCAR-4 ovarian, in the assay with SF-539 CNS and in the assay with SK-MEL-2 melanoma was above 100 µM throughout. Further, the TGI in the assay on SK-OV-3 ovarian and in the assay with TK-10 renal was above 100 µM throughout.

In the case of `Cc1c(C)c(C)c(CC2(C)CSC2)c(CC2(C)CSC2)c1C`, the TGI in the assay on HT29 colon, with MDA-N, in the assay with OVCAR-3 ovarian, in the assay on PC-3 prostate, in the assay on SF-539 CNS and in the assay on SK-MEL-2 melanoma was above 100 µM each time. The TGI in the assay on SK-OV-3 ovarian and in the assay on TK-10 renal was above 100 µM in each case.

For `CC[C@@H]1ON(C)[C@H]2CN(C)C(=O)[C@@H]12`, the TGI in the assay on CAKI-1 renal, in the assay on HT29 colon, with MDA-N, in the assay with OVCAR-3 ovarian, in the assay on OVCAR-4 ovarian and with PC-3 prostate was above 100 µM throughout. The TGI in the assay with SK-MEL-2 melanoma, in the assay with SK-OV-3 ovarian and in the assay on TK-10 renal was above 100 µM throughout.

`CCN1CCCC(C#N)(c2ccccc2)CC1` (stereo not drawn): the TGI in the assay with CAKI-1 renal, with HT29 colon, in the assay with MDA-N, in the assay on OVCAR-4 ovarian, in the assay on PC-3 prostate and in the assay with SK-OV-3 ovarian was above 100 µM each time. The molecule further returned a TGI in the assay with TK-10 renal above 100 µM.

Take `CN(C)CCCC1c2ccccc2Oc2ccc(C(F)(F)F)cc21` (stereo not drawn): the TGI in the assay on CAKI-1 renal worked out at 25.8 µM; with HT29 colon, 18.9 µM; in the assay on MDA-N, 15.2 µM; in the assay on OVCAR-3 ovarian, 29.2 µM; in the assay with OVCAR-4 ovarian it was 28.3 µM; in the assay with PC-3 prostate it was 27.1 µM. Besides, the TGI came to 29.5 µM in the assay with SF-539 CNS, 28.5 µM with SK-MEL-2 melanoma, 30.7 µM with SK-OV-3 ovarian and 29.3 µM in the assay on TK-10 renal.

In the case of `COc1ccc2c(c1O)-c1cc(O)cc3c1[C@@H](C2)N(C)CC3`, the TGI with CAKI-1 renal is 142 µM; in the assay with HT29 colon, 223 µM; in the assay on OVCAR-3 ovarian, 84.2 µM; with OVCAR-4 ovarian, 125 µM; in the assay on SF-539 CNS, 153 µM; in the assay on SK-MEL-2 melanoma it was 43.4 µM. In addition, the TGI in the assay with SK-OV-3 ovarian is 289 µM.

`NC(=S)N/N=C/c1nccc2ccccc12`: the TGI in the assay with CAKI-1 renal was 58.7 µM; with HT29 colon, above 100 µM; in the assay with OVCAR-4 ovarian it was above 100 µM; in the assay on SF-539 CNS, 9.11 µM; in the assay on SK-MEL-2 melanoma it was above 100 µM; with SK-OV-3 ovarian, 8.52 µM. The molecule also registered a TGI with TK-10 renal above 100 µM.

For the molecule `COc1cc([C@@H]2c3cc4c(c(O)c3C[C@H]3COC(=O)[C@@H]32)OCO4)cc(OC)c1OC`, the GI50 with CAKI-1 renal is 0.222 µM; in the assay on HT29 colon, 1.18 µM; in the assay with OVCAR-3 ovarian, 0.089 µM; with OVCAR-4 ovarian, 2.3 µM; with PC-3 prostate it was 0.0428 µM and 0.161 µM; in the assay on SF-539 CNS, 0.065 µM. Also, the GI50 in the assay on SK-MEL-2 melanoma was 1.02 µM; in the assay on SK-OV-3 ovarian, 0.183 µM; in the assay on TK-10 renal, 0.505 µM. Further, the TGI in the assay on PC-3 prostate was above 241 µM; with TK-10 renal, 37.5 µM and 167 µM and > 100 µM.
